Patent publication US12187773B2, “Modified GIP peptide analogues” (Antag Therapeutics ApS, priority 2018, dated 2025)
*1 amine or outer side, *2 acyl side, *3 side chain or, on linkers, in order; H or OH if unused. Where a SMILES comes first, the peptide text is derived from it. Side-chain parts run from the residue outwards. [ ]: non-standard residue; d: D form. The star is where a group is joined. C18 diacid = O=C(O)CCCCCCCCCCCCCCCCC(=O)*; C16 diacid = O=C(O)CCCCCCCCCCCCCCC(=O)*; γGlu = O=C(O)[C@H](CCC(=O)[*:2])N[*:1]; pGlu = O=C1CC[C@@H](C(=O)O)N1; AEEA = NCCOCCOCC(=O)O

Experiments:
Format in all cases: cell-based
human GIP receptor [1] = target: T1, human GIP receptor (Homo sapiens, UniProt P48546); assay: cAMP agonism (CisBio cAMP Dynamic 2 HTRF assay); settings: HEK293, read-out: cAMP agonism, % Efficacy, Table 1C, HEK-293 cells
T1 sequence (P48546 22-466): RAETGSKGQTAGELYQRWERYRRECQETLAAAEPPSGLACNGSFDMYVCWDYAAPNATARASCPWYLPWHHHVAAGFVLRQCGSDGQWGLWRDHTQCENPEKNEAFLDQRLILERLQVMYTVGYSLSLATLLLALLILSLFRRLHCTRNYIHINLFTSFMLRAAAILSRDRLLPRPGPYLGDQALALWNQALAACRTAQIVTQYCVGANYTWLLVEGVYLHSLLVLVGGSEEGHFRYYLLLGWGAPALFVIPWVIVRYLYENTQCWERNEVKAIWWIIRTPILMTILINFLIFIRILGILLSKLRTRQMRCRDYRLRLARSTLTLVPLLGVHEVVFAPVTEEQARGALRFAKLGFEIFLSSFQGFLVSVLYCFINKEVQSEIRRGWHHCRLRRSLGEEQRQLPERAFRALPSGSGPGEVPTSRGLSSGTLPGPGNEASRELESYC
Experimental: To test for agonistic properties at the GIP receptor, compounds were diluted and added to cells as described above and incubated for 30 min at 37° C. The resulting increase in intracellular cAMP was determined using the CisBio cAMP Dynamic 2 HTRF Assay Kit as described above.

human GIP receptor [2] = target: T1, human GIP receptor; assay: cAMP accumulation, agonism (DiscoveRx HitHunter cAMP XS assay); parameters: host or cells: COS-7 (transient, calcium phosphate; pCMV-Script vector); settings: Table 1B; DiscoveRx; COS-7 cells
Summary of the method: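 cAMP accumulation measured by HitHunter cAMP XS in COS-7 cells transiently expressing human GIP receptor, after 30 min in HBS with 1 mM IBMX at 37 °C. Antagonists preincubated 10 min before GIP giving 50-80% of maximum, then 20 min more; agonist mode used 30 min ligand exposure.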

glucagon receptor (GcgR) = target: T2, glucagon receptor (GcgR) (Homo sapiens, UniProt P47871); assay: cAMP assay - selectivity, antagonism at glucagon receptor; settings: Table 3A; COS-7 cells; agonist glucagon at 50-80% of maximal cAMP
T2 construct: expressed in transfected cells; host or cells: COS-7 (transient)
Experimental: (§1) Transient transfected COS-7 cells expressing the either of the GLP1 receptor (GLP1R), GLP2 receptor (GLP2R), glucagon receptor (GcgR) or secretin receptor (SCTR) were seeded in white 96-well plates with a density of 3.5*10^4/well. The day after, the cells were washed twice with Hepes buffered saline (HBS) buffer and incubated with HBS and 1 mM 3-isobutyl-1-methylxanthine (IBMX) for 30 min at 37° C. To test for agonistic properties, ligands were added and incubated for 30 min at 37° C. In order to test for antagonistic properties, the cells were preincubated with the antagonists for 10 min prior to the addition the natural agonist for the expressed receptor (GLP1 for GLP1R expressing cells, GLP2 for GLP2R expressing cells, glucagon for the GcgR and secretin for the SCTR) and subsequent incubated for 20 additional min. […] The HitHunter™ cAMP XS assay (DiscoveRx) was carried out according to the manufacturer's instructions.

secretin receptor (SCTR) = target: T3, secretin receptor (SCTR) (Homo sapiens, UniProt P47872); assay: cAMP assay - selectivity, antagonism at secretin receptor; settings: Table 3B; COS-7 cells; agonist secretin
T3 construct: expressed in transfected cells; host or cells: COS-7 (transient)
Experimental: as §1

GLP2 receptor (GLP2R) = target: T4, GLP2 receptor (GLP2R) (Homo sapiens, UniProt O95838); assay: cAMP assay - selectivity, antagonism at GLP2 receptor; settings: Table 3B; COS-7 cells; agonist GLP2
T4 construct: expressed in transfected cells; host or cells: COS-7 (transient)
T4 sequence (O95838 1-553): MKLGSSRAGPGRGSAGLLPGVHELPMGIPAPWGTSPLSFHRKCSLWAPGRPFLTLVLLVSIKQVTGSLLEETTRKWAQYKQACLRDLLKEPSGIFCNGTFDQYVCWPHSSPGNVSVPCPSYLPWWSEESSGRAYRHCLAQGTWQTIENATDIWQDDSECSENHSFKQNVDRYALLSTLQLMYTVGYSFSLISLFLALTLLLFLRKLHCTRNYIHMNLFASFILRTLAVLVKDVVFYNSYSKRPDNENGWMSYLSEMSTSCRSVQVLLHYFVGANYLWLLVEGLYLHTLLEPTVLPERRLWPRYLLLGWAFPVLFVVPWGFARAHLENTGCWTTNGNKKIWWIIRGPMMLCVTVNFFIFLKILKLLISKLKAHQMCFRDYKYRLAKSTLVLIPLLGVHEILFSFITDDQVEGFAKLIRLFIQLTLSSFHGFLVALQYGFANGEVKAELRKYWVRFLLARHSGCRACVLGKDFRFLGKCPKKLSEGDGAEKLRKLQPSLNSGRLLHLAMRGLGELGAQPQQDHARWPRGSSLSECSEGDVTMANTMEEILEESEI
Experimental: as §1

GLP1 receptor (GLP1R) = target: T5, GLP1 receptor (GLP1R) (Homo sapiens, UniProt P43220); assay: cAMP assay - selectivity, antagonism at GLP1 receptor; settings: Table 3A; COS-7 cells; agonist GLP1 at 50-80% of maximal cAMP
T5 construct: expressed in transfected cells; host or cells: COS-7 (transient)
Experimental: as §1

human GIP receptor [3] = target: T1, human GIP receptor; assay: cAMP accumulation, antagonism (DiscoveRx HitHunter cAMP XS assay); parameters: host or cells: COS-7 (transient, calcium phosphate; pCMV-Script vector); settings: for cAMP antagonism, % inhib / GIPR, Antagonism, % inhib: COS-7 cells; for cAMP antagonism, % inhib: % inhibition of Emax; for GIPR, Antagonism, % inhib: Table 3A/3B
Summary of the method: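 Transiently transfected COS-7 cells expressing human GIP receptor, pretreated with 1 mM IBMX in HBS 30 min at 37 °C. Agonism: ligand 30 min at 37 °C; antagonism: 10 min antagonist preincubation, then GIP at 50-80% maximal response for 20 min. cAMP measured by HitHunter cAMP XS.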

[4] = cAMP antagonism, nM (IC50), Table 1B, DiscoveRx, transiently transfected COS-7 cells

T5 sequence (P43220 24-463, species assumed): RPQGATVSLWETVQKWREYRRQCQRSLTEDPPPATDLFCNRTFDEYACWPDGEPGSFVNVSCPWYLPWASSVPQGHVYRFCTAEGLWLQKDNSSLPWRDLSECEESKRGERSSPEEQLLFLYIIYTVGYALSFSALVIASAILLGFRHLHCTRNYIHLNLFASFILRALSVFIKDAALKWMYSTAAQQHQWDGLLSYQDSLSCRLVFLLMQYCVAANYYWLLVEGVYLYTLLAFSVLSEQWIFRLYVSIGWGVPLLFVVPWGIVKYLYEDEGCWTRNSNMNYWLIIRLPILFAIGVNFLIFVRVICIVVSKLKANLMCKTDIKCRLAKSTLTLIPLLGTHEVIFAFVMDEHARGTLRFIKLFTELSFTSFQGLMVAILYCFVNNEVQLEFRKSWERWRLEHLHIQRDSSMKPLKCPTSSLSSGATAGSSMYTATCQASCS
T2 sequence (P47871 26-477, species assumed): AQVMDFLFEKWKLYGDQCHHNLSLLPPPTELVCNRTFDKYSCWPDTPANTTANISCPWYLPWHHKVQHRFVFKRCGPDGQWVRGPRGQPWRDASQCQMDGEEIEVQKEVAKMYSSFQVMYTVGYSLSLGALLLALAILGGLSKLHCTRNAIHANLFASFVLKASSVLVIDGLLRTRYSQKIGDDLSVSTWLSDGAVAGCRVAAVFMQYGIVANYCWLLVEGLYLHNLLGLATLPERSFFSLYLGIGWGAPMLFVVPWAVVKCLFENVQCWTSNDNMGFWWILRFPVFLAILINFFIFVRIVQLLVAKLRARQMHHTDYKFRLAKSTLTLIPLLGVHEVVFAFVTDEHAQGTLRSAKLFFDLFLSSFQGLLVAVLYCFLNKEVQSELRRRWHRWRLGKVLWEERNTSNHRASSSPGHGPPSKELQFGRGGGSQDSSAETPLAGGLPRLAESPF
T3 sequence (P47872 23-440, species assumed): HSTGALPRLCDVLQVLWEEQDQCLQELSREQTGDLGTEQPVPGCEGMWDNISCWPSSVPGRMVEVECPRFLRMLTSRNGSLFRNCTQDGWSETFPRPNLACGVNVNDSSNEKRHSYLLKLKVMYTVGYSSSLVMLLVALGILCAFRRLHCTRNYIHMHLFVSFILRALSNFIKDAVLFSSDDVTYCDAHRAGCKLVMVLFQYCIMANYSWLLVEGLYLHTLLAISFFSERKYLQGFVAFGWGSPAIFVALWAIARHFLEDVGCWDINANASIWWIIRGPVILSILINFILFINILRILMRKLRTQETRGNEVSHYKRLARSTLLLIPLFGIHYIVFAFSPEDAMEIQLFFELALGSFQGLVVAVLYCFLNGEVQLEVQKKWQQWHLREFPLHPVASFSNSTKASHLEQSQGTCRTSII

`CC[C@H](C)[C@H](NC(=O)[C@H](CO)NC(=O)[C@H](Cc1ccc(O)cc1)NC(=O)[C@H](CC(=O)O)NC(=O)[C@H](CO)NC(=O)[C@@H](NC(=O)[C@H](Cc1ccccc1)NC(=O)[C@@H](NC(=O)CNC(=O)[C@@H](N)CO)[C@@H](C)O)[C@@H](C)CC)C(=O)N[C@@H](C)C(=O)N[C@@H](CCSC)C(=O)N[C@@H](CC(=O)O)C(=O)N[C@@H](CCCNC(=N)N)C(=O)N[C@H](C(=O)N[C@@H](CCCCNC(=O)COCCOCCNC(=O)COCCOCCNC(=O)COCCOCCNC(=O)CC[C@H](NC(=O)CCCCCCCCCCCCCCC(=O)O)C(=O)O)C(=O)N[C@@H](CCC(N)=O)C(=O)N[C@@H](CCC(N)=O)C(=O)N[C@@H](CC(=O)O)C(=O)N[C@@H](Cc1ccccc1)C(=O)N[C@H](C(=O)N[C@@H](CC(N)=O)C(=O)N[C@@H](Cc1c[nH]c2ccccc12)C(=O)N[C@@H](CC(C)C)C(=O)N[C@@H](CC(C)C)C(=O)N[C@@H](C)C(=O)N[C@@H](CCC(N)=O)C(=O)N[C@@H](CCCNC(=N)N)C(N)=O)C(C)C)[C@@H](C)CC` [AT383] (H-SGTFISDYSIAMDRIK([AEEA-AEEA-AEEA-γGlu-C16 diacid])QQDFVNWLLAQR-NH2; N-terminus assumed) was tested, and the Emax (human GIP receptor [1]) was 0%, the “cAMP agonism, Emax” value (human GIP receptor [2]) was “No Agonism” and the “Glucagon R, Antagonism, nM” value (glucagon receptor (GcgR)) was “No antagonism”. The “Secretin R, Antagonism” value (secretin receptor (SCTR)) was “No antagonism”, the “GLP-2R, Antagonism” value (GLP2 receptor (GLP2R)) was “No antagonism” and the “GLP-1R, Antagonism, nM” value (GLP1 receptor (GLP1R)) was “No antagonism”. For the same molecule, the “cAMP antagonism, % inhib” value (human GIP receptor [3]; Table 1B, DiscoveRx) was 100%, the “GIPR, Antagonism, % inhib” value (human GIP receptor [3]; DiscoveRx) was 100.0% and the IC50 (human GIP receptor [3]; [4]) was 1 nM.

In the case of `CC[C@H](C)[C@H](NC(=O)[C@H](CO)NC(=O)[C@H](Cc1ccc(O)cc1)NC(=O)[C@H](CC(=O)O)NC(=O)[C@H](CO)NC(=O)[C@@H](NC(=O)[C@H](Cc1ccccc1)NC(=O)[C@@H](NC(=O)CNC(=O)[C@@H]1CCC(=O)N1)[C@@H](C)O)[C@@H](C)CC)C(=O)N[C@@H](C)C(=O)N[C@@H](CCSC)C(=O)N[C@@H](CC(=O)O)C(=O)N[C@@H](CCCNC(=N)N)C(=O)N[C@H](C(=O)N[C@@H](CCCCNC(=O)COCCOCCNC(=O)COCCOCCNC(=O)COCCOCCNC(=O)CC[C@H](NC(=O)CCCCCCCCCCCCCCCCC(=O)O)C(=O)O)C(=O)N[C@@H](CCC(N)=O)C(=O)N[C@@H](CCC(N)=O)C(=O)N[C@@H](CC(=O)O)C(=O)N[C@@H](Cc1ccccc1)C(=O)N[C@H](C(=O)N[C@@H](CC(N)=O)C(=O)N[C@@H](Cc1c[nH]c2ccccc12)C(=O)N[C@@H](CC(C)C)C(=O)N[C@@H](CC(C)C)C(=O)N[C@@H](C)C(=O)N[C@@H](CCC(N)=O)C(=O)N[C@@H](CCCNC(=N)N)C(N)=O)C(C)C)[C@@H](C)CC` [AT382] ([pGlu]GTFISDYSIAMDRIK([AEEA-AEEA-AEEA-γGlu-C18 diacid])QQDFVNWLLAQR-NH2), the Emax (human GIP receptor [1]) is reported as 0%, the “cAMP agonism, Emax” value (human GIP receptor [2]) is reported as “No Agonism” and the “Glucagon R, Antagonism, nM” value (glucagon receptor (GcgR)) is reported as “No antagonism”. For the same molecule, the “Secretin R, Antagonism” value (secretin receptor (SCTR)) was “No antagonism”, the “GLP-2R, Antagonism” value (GLP2 receptor (GLP2R)) was “No antagonism” and the “GLP-1R, Antagonism, nM” value (GLP1 receptor (GLP1R)) was “No antagonism”. The “cAMP antagonism, % inhib” value (human GIP receptor [3]; Table 1B, DiscoveRx) was 100%, the “GIPR, Antagonism, % inhib” value (human GIP receptor [3]; DiscoveRx) was 100.0% and the IC50 (human GIP receptor [3]; [4]) was 2 nM.

In the case of `CC[C@H](C)[C@H](NC(=O)[C@H](CO)NC(=O)[C@H](Cc1ccc(O)cc1)NC(=O)[C@H](CC(=O)O)NC(=O)[C@H](CO)NC(=O)[C@@H](NC(=O)[C@H](Cc1ccccc1)NC(=O)[C@@H](NC(=O)CNC(=O)[C@@H](N)CO)[C@@H](C)O)[C@@H](C)CC)C(=O)N[C@@H](C)C(=O)N[C@@H](CCSC)C(=O)N[C@@H](CC(=O)O)C(=O)N[C@@H](CCCNC(=N)N)C(=O)N[C@H](C(=O)N[C@@H](CCCCNC(=O)CCCCCCCCCCCCCCCCC(=O)O)C(=O)N[C@@H](CCC(N)=O)C(=O)N[C@@H](CCC(N)=O)C(=O)N[C@@H](CC(=O)O)C(=O)N[C@@H](Cc1ccccc1)C(=O)N[C@H](C(=O)N[C@@H](CC(N)=O)C(=O)N[C@@H](Cc1c[nH]c2ccccc12)C(=O)N[C@@H](CC(C)C)C(=O)N[C@@H](CC(C)C)C(=O)N[C@@H](C)C(=O)N[C@@H](CCC(N)=O)C(=O)N[C@@H](CCCNC(=N)N)C(N)=O)C(C)C)[C@@H](C)CC` [AT393] (H-SGTFISDYSIAMDRIK(C18 diacid)QQDFVNWLLAQR-NH2; N-terminus assumed), the Emax (human GIP receptor [1]) is reported as 6%, the “cAMP agonism, Emax” value (human GIP receptor [2]) is reported as “No Agonism” and the “Glucagon R, Antagonism, nM” value (glucagon receptor (GcgR)) is reported as “No antagonism”. For the same molecule, the “Secretin R, Antagonism” value (secretin receptor (SCTR)) was “No antagonism”, the “GLP-2R, Antagonism” value (GLP2 receptor (GLP2R)) was “No antagonism” and the “GLP-1R, Antagonism, nM” value (GLP1 receptor (GLP1R)) was “No antagonism”. The IC50 (human GIP receptor [3]; IC50-value (GIPR antagonism), Examples 1 and 2, values of Tables 1B and 2) was 1 nM, the “cAMP antagonism, % inhib” value (human GIP receptor [3]; Table 1B, DiscoveRx) was 100% and the “GIPR, Antagonism, % inhib” value (human GIP receptor [3]; DiscoveRx) was 100.0%. It also gave an IC50 (human GIP receptor [3]; [4]) of 1 nM.
